Columns and labels:
[1] = tested on: rat caudal artery; assay: Rat caudal artery ring contractile force (vasoconstrictory activity); set-up: species or system rat (male Wistar); conditions: for Emax: Table 1, read-out: Vasoconstriction: maximum contractile effect as a % of 90 mM KCl contraction
Protocol: Male Wistar rats (150-250 g) were obtained from Charles River Italia (Milano, Italy) and killed by decapitation. Ventral caudal artery was isolated, placed in Tyrode solution at room temperature and cleaned of extraneous fatty and connective tissue under a dissection microscope. All vessels were cut into rings 2 mm long, mounted on a custom-built plexiglass support by means of two intraluminal tungsten wires and placed in 20 mL double-jacketed organ baths filled with Tyrode solution of the following composition (mM): NaCl 125, KCl 5, CaCl2 2.7, MgSO4 1, KH2PO4 1.2, NaHCO3 25 and glucose 11, maintained at 37° C., pH 7.35, bubbled with 95% O2 and […]. The endothelium was removed by gently rubbing the lumen of the rings with a very thin rough-surfaced tungsten wire (caudal artery). The mechanical activity of the rings was detected by means of an isometric force transducer (Ugo Basile, Comerio, Italy) coupled to a pen recorder (Ugo Basile, Comerio, Italy). Rings were passively stretched to impose a resting tension (2 g) and were allowed to equilibrate for 60 min. After equilibration, each ring was repeatedly simulated with both KCl (90 mM) and phenylephrine (10 μM) until reproducible responses were obtained. To verify the absence of the endothelium, rings contracted with 1 μM phenylephrine were exposed to […] carbamylcholine. […] Each compound was tested for the vasoconstrictor activity at a concentration of 50 μM, which has been previously reported to be the one evoking the maximal response to norbormide. The contractile responses to the compounds were expressed as percent of the 90 mM KCl response.

[2] = tested on: Sprague Dawley rats; assay: In vivo lethality, oral gavage; set-up: species or system rat (Sprague Dawley); conditions: 40 mg/Kg, rat, n = 2
Protocol: Sprague Dawley rats (150-200 g) were used to appraise the rodenticidal activity of the compounds put forward for in vivo evaluation. Briefly, prior to administration the compounds were dissolved in 0.2 M hydrochloric acid (5% DMSO overall), to the desired dose, and without delay either injected intravenously, via the tail, or orally gavaged. All treated animals were housed in a quiet room and monitored every minute (i.v) or every 15 min (oral) to verify early signs of toxicity.

[3] = Table 7, compounds of formula (V)

SMILES | Vasoconstriction: maximum contractile effect as a % of 90 mM KCl contraction ([1]; Table 1, compound at 50 μM) | further results
CCCCCCCCCCCC(=O)OCN1C(=O)C2C3C=C(C(O)(c4ccccc4)c4ccccn4)C(C3=C(c3ccccc3)c3ccccn3)C2C1=O (stereo not drawn) [Compound 11, N-Dodecanoyloxymethyl-5-(α-hydroxy-α-2-pyridylbenzyl)-7-(α-2-pyridylbenzylidene)-5-norbornene-2,3-dicarboximide] |  | Emax [1]: 0%; Vasoconstriction: maximum contractile effect as a % of 90 mM KCl contraction ([1]; Table 4, pre-cleavage, n = 3): 0%
O=C(OCN1C(=O)C2C3C=C(C(O)(c4ccccc4)c4ccccn4)C(C3=C(c3ccccc3)c3ccccn3)C2C1=O)C(c1ccccc1)c1ccccc1 (stereo not drawn) [Compound 17, N-Diphenylacetyloxymethyl-5-(α-hydroxy-α-2-pyridylbenzyl)-7-(α-2-pyridylbenzylidene)-5-norbornene-2,3-dicarboximide] |  | In vivo lethality (oral) [2]: no^h; Emax [1]: 0%; Vasoconstriction: maximum contractile effect as a % of 90 mM KCl contraction ([1]; Table 4, pre-cleavage, n = 3): 0%
CC(O)CN1C(=O)C2C3C=C(C(O)(c4ccccc4)c4ccccn4)C(C3=C(c3ccccc3)c3ccccn3)C2C1=O (stereo not drawn) [Compound 103, N-2′-Hydroxypropyl-5-(α-hydroxy-α-2-pyridylbenzyl)-7-(α-2-pyridylbenzylidene)-5-norbornene-2,3-dicarboximide] |  | Vasoconstriction: maximum contractile effect as a % of 90 mM KCl contraction [1, 3]: 67%; Vasoconstriction: maximum contractile effect as a % of 90 mM KCl contraction ([1]; n = 3, Table 8): 67%
O=C1C2C3C=C(C(O)(c4ccccc4)c4ccccn4)C(C3=C(c3ccccc3)c3ccccn3)C2C(=O)N1CCCCO (stereo not drawn) [Compound 105, N-4′-Hydroxybutyl-5-(α-hydroxy-α-2-pyridylbenzyl)-7-(α-2-pyridylbenzylidene)-5-norbornene-2,3-dicarboximide] |  | Vasoconstriction: maximum contractile effect as a % of 90 mM KCl contraction [1, 3]: 100%; Vasoconstriction: maximum contractile effect as a % of 90 mM KCl contraction ([1]; n = 3, Table 8): 100%
CC(C)(C)C(=O)OCCN1C(=O)C2C3C=C(C(O)(c4ccccc4)c4ccccn4)C(C3=C(c3ccccc3)c3ccccn3)C2C1=O (stereo not drawn) [Compound 109, 5-(α-Hydroxy-α-2-pyridylbenzyl)-N-2′-pivaloyloxyethyl-7-(α-2-pyridylbenzylidene)-5-norbornene-2,3-dicarboximide] | ≧132% | 
CCCC(=O)OCCN1C(=O)C2C3C=C(C(O)(c4ccccc4)c4ccccn4)C(C3=C(c3ccccc3)c3ccccn3)C2C1=O (stereo not drawn) [Compound 110, N-2′-Butanoyloxyethyl-5-(α-hydroxy-α-2-pyridylbenzyl)-7-(α-2-pyridylbenzylidene)-5-norbornene-2,3-dicarboximide] | ≧132% | 
O=C(OCCN1C(=O)C2C3C=C(C(O)(c4ccccc4)c4ccccn4)C(C3=C(c3ccccc3)c3ccccn3)C2C1=O)c1ccccc1 (stereo not drawn) [Compound 113, N-2′-Benzoyloxyethyl-5-(α-hydroxy-α-2-pyridylbenzyl)-7-(α-2-pyridylbenzylidene)-5-norbornene-2,3-dicarboximide] | ≧132% | 
COc1ccccc1C(=O)OCCN1C(=O)C2C3C=C(C(O)(c4ccccc4)c4ccccn4)C(C3=C(c3ccccc3)c3ccccn3)C2C1=O (stereo not drawn) [Compound 114, 5-(α-Hydroxy-α-2-pyridylbenzyl)-N-2′-o-methoxybenzoyloxyethyl-7-(α-2-pyridylbenzylidene)-5-norbornene-2,3-dicarboximide] | ≧132% | 
COc1cccc(C(=O)OCCN2C(=O)C3C4C=C(C(O)(c5ccccc5)c5ccccn5)C(C4=C(c4ccccc4)c4ccccn4)C3C2=O)c1 (stereo not drawn) [Compound 115, 5-(α-Hydroxy-α-2-pyridylbenzyl)-N-2′-m-methoxybenzoyloxyethyl-7-(α-2-pyridylbenzylidene)-5-norbornene-2,3-dicarboximide] | 52% | 
COc1ccc(C(=O)OCCN2C(=O)C3C4C=C(C(O)(c5ccccc5)c5ccccn5)C(C4=C(c4ccccc4)c4ccccn4)C3C2=O)cc1 (stereo not drawn) [Compound 116, 5-(α-Hydroxy-α-2-pyridylbenzyl)-N-2′-p-methoxybenzoyloxyethyl-7-(α-2-pyridylbenzylidene)-5-norbornene-2,3-dicarboximide] | ≧132% | 
O=C(Cc1ccccc1)OCCN1C(=O)C2C3C=C(C(O)(c4ccccc4)c4ccccn4)C(C3=C(c3ccccc3)c3ccccn3)C2C1=O (stereo not drawn) [Compound 117, 5-(α-Hydroxy-α-2-pyridylbenzyl)-N-2′-phenylacetyloxyethyl-7-(α-2-pyridylbenzylidene)-5-norbornene-2,3-dicarboximide] | ≧132% | 
O=C(CCc1ccccc1)OCCN1C(=O)C2C3C=C(C(O)(c4ccccc4)c4ccccn4)C(C3=C(c3ccccc3)c3ccccn3)C2C1=O (stereo not drawn) [Compound 119, N-2′-Dihydrocinnamoyloxyethyl-5-(α-hydroxy-α-2-pyridylbenzyl)-7-(α-2-pyridylbenzylidene)-5-norbornene-2,3-dicarboximide] | ≧132% | 
COc1cccc(C=CC(=O)OCCN2C(=O)C3C4C=C(C(O)(c5ccccc5)c5ccccn5)C(C4=C(c4ccccc4)c4ccccn4)C3C2=O)c1 (stereo not drawn) [Compound 125, 5-(α-1-hydroxy-α-2-pyridylbenzyl)-N-[2′-(3″-methoxycinnamoyloxy)ethyl]-7-(α-2-pyridylbenzylidene)-5-norbornene-2,3-dicarboximide] | 80% | 
Cc1ccc(C=CC(=O)OCCN2C(=O)C3C4C=C(C(O)(c5ccccc5)c5ccccn5)C(C4=C(c4ccccc4)c4ccccn4)C3C2=O)cc1 (centres unmarked) [Compound 128] | 42% | 
CN(C)c1ccc(C=CC(=O)OCCN2C(=O)C3C4C=C(C(O)(c5ccccc5)c5ccccn5)C(C4=C(c4ccccc4)c4ccccn4)C3C2=O)cc1 (centres unmarked) [Compound 131] | 30% | 
COc1ccc(C=CC(=O)OCCN2C(=O)C3C4C=C(C(O)(c5ccccc5)c5ccccn5)C(C4=C(c4ccccc4)c4ccccn4)C3C2=O)cc1OC (centres unmarked) [Compound 132] | 120% | 
O=C(/C=C/C=C/c1ccccc1)OCCN1C(=O)C2C3C=C(C(O)(c4ccccc4)c4ccccn4)C(C3=C(c3ccccc3)c3ccccn3)C2C1=O (stereo not drawn) [Compound 187, 5-(α-Hydroxy-α-2-pyridylbenzyl)-N-[2′-(5″-phenyl-2″E,4″E-pentadienoyloxy)ethyl]-7-(α-2-pyridylbenzylidene)-5-norbornene-2,3-dicarboximide] | 0% | 
O=C(C=Cc1ccc2ccccc2c1)OCCN1C(=O)C2C3C=C(C(O)(c4ccccc4)c4ccccn4)C(C3=C(c3ccccc3)c3ccccn3)C2C1=O (stereo not drawn) [Compound 188, 5-(α-Hydroxy-α-2-pyridylbenzyl)-N-[2′-(2″-naphthylacryloyloxy)ethyl]-7-(α-2-pyridylbenzylidene)-5-norbornene-2,3-dicarboximide] | 0% | 
O=C(OCOCCN1C(=O)C2C3C=C(C(O)(c4ccccc4)c4ccccn4)C(C3=C(c3ccccc3)c3ccccn3)C2C1=O)C(c1ccccc1)c1ccccc1 (stereo not drawn) [Compound 201, N-[2′-(Diphenylacetyloxymethyloxy)ethyl]-5-(α-hydroxy-α-2-pyridylbenzyl)-7-(α-2-pyridylbenzylidene)-5-norbornene-2,3-dicarboximide] |  | Emax [1]: ≥ 132%
O=C(CCC(=O)Oc1ccccc1)OCCN1C(=O)C2C3C=C(C(O)(c4ccccc4)c4ccccn4)C(C3=C(c3ccccc3)c3ccccn3)C2C1=O (stereo not drawn) [Compound 204, 5-(α-Hydroxy-α-2-pyridylbenzyl)-N-2′-(monophenyl)succinoyloxyethyl-7-(α-2-pyridylbenzylidene)-5-norbornene-2,3-dicarboximide] | 0% | 
CS(=O)(=O)c1ccc(C=CC(=O)OCCN2C(=O)C3C4C=C(C(O)(c5ccccc5)c5ccccn5)C(C4=C(c4ccccc4)c4ccccn4)C3C2=O)cc1 (stereo not drawn) [Compound 329, 5-(α-Hydroxy-α-2-pyridylbenzyl)-N-[2′-(4″-methylsulfonylcinnamoyloxy)ethyl]-7-(α-2-pyridylbenzylidene)-5-norbornene-2,3-dicarboximide] |  | In vivo lethality (oral) [2]: yes^h; Emax [1]: 88%; Vasoconstriction: maximum contractile effect as a % of 90 mM KCl contraction ([1]; Table 4, pre-cleavage, n = 3): 88%
O=C(C=Cc1ccccc1)NCCN1C(=O)C2C3C=C(C(O)(c4ccccc4)c4ccccn4)C(C3=C(c3ccccc3)c3ccccn3)C2C1=O (stereo not drawn) [Compound 365, N-2′-Cinnamamidoethyl-5-(α-hydroxy-α-2-pyridylbenzyl)-7-(α-2-pyridylbenzylidene)-5-norbornene-2,3-dicarboximide] |  | Vasoconstriction: maximum contractile effect as a % of 90 mM KCl contraction ([1]; Table 2, compound at 50 μM): 43%

Source: patent US9198420B2, “Rodenticidal norbormide analogues” (priority 2012, dated 2015)
